From patent publication US20240299400A1, “Transcription Factor GLI1 Inhibitors and Uses Thereof” (University of Connecticut, priority 2023, published 2024)

Legend:
GLI1 mRNA expression [1] = assay: RT-qPCR GLI1 mRNA expression in ASZ001 BCC cells; assay type: cell-based, mouse; details: read-out: RT-qPCR, IC50 ASZ001
Protocol: (§1) ASZ001 and Sufu-KO cells were seeded in 96-well plates (10,000/well, 100 μL) and incubated overnight under growth conditions. On the second day, ‘growth’ media was removed and replaced by ‘assay’ media (100 μL). On the third day, cells were treated with a serial dilution of drugs or DMSO for 48 h. mRNA expression was determined through Taqman Fast Cells-to-CT Kit (#4399003) per the manufacturer's instructions. In brief, cells were washed with chilled PBS, then mixed with lysis solution containing DNase I and incubated at RT for 5 min. Stop solution was then added to quench the lysis reagents. cDNA was then synthesized through a BioRad MyCycler following addition of reverse transcriptase. Finally, the cDNA was amplified through an ABI 7500 system following addition of Taqman Fast Universal PCR Master Mix and Taqman Gene Expression Primer. Relative gene expression levels were computed by the ΔΔCt method. Values represent mRNA expression relative to DMSO control (set at 1.0). Data were analyzed using GraphPad Prism, and IC50 values are the mean±SEM for at least two separate experiments performed in triplicate. Primers used are as follows: mouse ActB (Mm00607939_s1); mouse GLI1 (Mm00494645_ml); mouse Gli2 (Mm01293117_ml); mouse Ptch1 (Mm00436026_ml); mouse Hhip (Mm00469580_ml).

GLI1-ZFD [2] = molecular target: T1, GLI1-ZFD (Homo sapiens, UniProt P08151); assay: Microscale thermophoresis (MST) binding to GLI1-ZFD
T1 construct: GLI1-ZFD Expression and Purification; made in house
T1 sequence (P08151 234-388 limits assumed): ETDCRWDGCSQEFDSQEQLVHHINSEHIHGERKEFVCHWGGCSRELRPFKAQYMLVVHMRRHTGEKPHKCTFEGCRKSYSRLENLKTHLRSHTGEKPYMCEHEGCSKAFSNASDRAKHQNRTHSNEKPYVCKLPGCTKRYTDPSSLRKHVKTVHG
Protocol: The protein expression and purification experiments followed the previous reported procedures [C. A. Maschinot, et al., Synthesis and evaluation of third generation vitamin D3 analogues as inhibitors of hedgehog signaling. Euro. J. Med. Chem. 162 (2019) 495-506].
GLI1 protein labeling was performed through the Monolith Protein Labeling Kit RED-NHS 2nd Generation (Nanotemper #MO-LO11) per the manufacturer's instructions. Briefly, GLI1 (100 μg, 1 mg/mL) underwent buffer exchange to remove incompatible ingredients like Tris or DTT. Proteins in the Labeling Buffer were incubated with freshly prepared dye (˜3-fold excess of dye) for 30 min at RT in the dark. Unreacted ‘free’ dye was removed by a gel-filtration column. Protein concentration and degree-of-labeling were calculated by measuring absorption at 280 nm and 650 nm. For each assay, 200 nM GLI1 in MST Buffer was mixed with compound dilution in DMSO (DMSO<5%, v/v). The mixture was then loaded to a capillary and the thermophoresis was subsequently determined through Monolith NT.115 station. Results were analyzed by MO.Affinity Analysis software and visualized by Graphpad Prism. MST Buffer: 50 mM HEPES, pH 8.3, 100 mM NaCl.

GLI1 mRNA expression [3] = assay: RT-qPCR GLI1 mRNA expression in Sufu-KO MEFs; assay type: cell-based, mouse; details: read-out: RT-qPCR, IC50 Sufu-KO
Protocol: as §1

GLI1 mRNA expression [4] = assay: RT-qPCR GLI1 mRNA expression in OHCs-stimulated C3H10T1/2 MEFs; assay type: cell-based, mouse; details: Table 4, racemates and enantiomers, mean ± SEM; read-out: RT-qPCR, IC50 C3H10T1/2
Protocol: as §1
C3H10T1/2 MEFs were seeded in 24-well plates (50,000/well, 500 μL). Following 24 h incubation, the ‘growth’ media was removed and replaced with ‘assay’ media (500 μL). On the third day, cells were treated with either DMSO, OHCs, or OHCs+drugs. Following a 24 h incubation, gene expression analysis was carried out following identical protocols as described above.

GLI1-ZFD [5] = molecular target: T1, GLI1-ZFD; assay: Surface plasmon resonance (SPR) binding to GLI1-ZFD; details: analyte 100 to 3.125 μM, 1:1 binding fit
Protocol: SPR studies were performed on a Biacore T200 as a contract service by Creative Biolabs (Shirley, NY, USA), utilizing the same procedure described previously [G. Yernale, A comprehensive review on the biological interest of quinoline and its derivatives. Bioorg. Med. Chem. 32 (2021) 115973]. Briefly, GLI1 protein was immobilized on a Series S CM5 sensor chip (GE Healthcare), and various concentrations of compound 1a/b were injected (flow rate, 30 μL/min) with a contact time of 180 s and dissociation time of 600 s. Kinetic parameters were determined by the Biacore T200 evaluation software.

PANC-1 (pancreatic) = assay: MTS anti-proliferative assay in PANC-1 cells; assay type: cell-based; details: Homo sapiens, PANC-1; Table 8, 48 h, mean ± SEM
Protocol: (§2) Cell viability was assessed by MTS proliferation assay kit (Promega) per manufacturer's protocol. Briefly, 2×10^4 cells were plated in a 96-well plate in 100 μL growth medium to make the cell population at ˜80% confluence. After 24 h, 1 μL drug solution was added to each well. DMSO was used as vehicle compound. After 48 h incubation (37° C., 5% CO2), 20 μL of freshly prepared 3-(4,5-dimethylthiazol-2-yl)-5-(3-carboxymethoxyphenyl)-2-(4-sulfophenyl)-2H-tetrazolium (MTS)/phenazine methosulfate (PMS) solution was added to each well, and the plate was returned to the incubator for 1 h. Absorbance at 490 nm was recorded, and the result was analyzed by GraphPad Prism 5. GI50 values represent mean±SEM for at least two separate experiments performed in triplicate.

DAOY (MB) = assay: MTS anti-proliferative assay in DAOY cells; assay type: cell-based; details: Homo sapiens, Daoy; Table 8, 48 h, mean ± SEM
Protocol: as §2

ASZ001 cells = assay: MTS anti-proliferative assay in ASZ001 cells; assay type: cell-based, murine; details: Mus musculus, ASZ001, Ave ± SEM
Protocol: as §2

[6] = Table 4, racemates and enantiomers, mean ± SEM

Q: With `CCN(CC)c1ccc(C(Nc2ccccn2)c2ccc3ccc(C)nc3c2O)cc1` (single isomer, unassigned) [Compound 1a] as the compound, how does the IC50 (GLI1 mRNA expression [1]; Mus musculus, ASZ001, Table 4, racemates and enantiomers, mean ± SEM) read?
A: The IC50 was 1.8 ± 0.7 µM.

Q: What about the Kd (GLI1-ZFD [2]; Table 4, mean ± SEM) of the same compound?
A: Its Kd is 12.9 ± 1.6 µM.

Q: And the IC50 (GLI1 mRNA expression [3]; [6])?
A: Its IC50 is 1.7 ± 0.6 µM.

Q: And the IC50 (GLI1 mRNA expression [4])?
A: The IC50 was 0.71 ± 0.26 µM.

Q: What about the Ka (GLI1-ZFD [5]; listed as 1a (R)) of the same compound?
A: The Ka was 171 M⁻¹ s⁻¹.

Q: What about the Kd (GLI1-ZFD [5]; listed as 1a (R)) of the same compound?
A: Its Kd is 0.00165 s⁻¹.

Q: And the Rmax (GLI1-ZFD [5]; listed as 1a (R))?
A: Its Rmax is 62.84.

Q: And the Kd (GLI1-ZFD [5]; read-out: KD)?
A: The Kd was 9.66 µM.

Q: How did the IC50 (GLI1 mRNA expression [1]; [6]) turn out when `CCN(CC)c1ccc(C(Nc2ccccn2)c2ccc3ccc(C)nc3c2O)cc1` (single isomer, unassigned) [Compound 1b] was run?
A: The IC50 was 1.9 ± 0.6 µM.

Q: What about the Kd (GLI1-ZFD [2]; Table 4, mean ± SEM) of the same compound?
A: Its Kd is 22.1 ± 4.3 µM.

Q: And the IC50 (GLI1 mRNA expression [3]; [6])?
A: The IC50 was 0.75 ± 0.38 µM.

Q: What about the IC50 (GLI1 mRNA expression [4]) of the same compound?
A: Its IC50 is 0.12 ± 0.08 µM.

Q: What about the Ka (GLI1-ZFD [5]; listed as 1b (S)) of the same compound?
A: Its Ka is 70.3 M⁻¹ s⁻¹.

Q: And the Kd (GLI1-ZFD [5]; listed as 1b (S))?
A: Its Kd is 0.00131 s⁻¹.

Q: And the Rmax (GLI1-ZFD [5]; listed as 1b (S))?
A: The Rmax was 78.64.

Q: What about the Kd (GLI1-ZFD [5]; read-out: KD) of the same compound?
A: Its Kd is 18.7 µM.

Q: `CCN(CC)c1ccc(CNc2ccccn2)cc1` [Compound 14, N-(4-Diethylaminobenzyl)pyridin-2-amine] was tested. Which GI50 (PANC-1 (pancreatic)) did it give?
A: Its GI50 is 61.9 ± 9.3 µM.

Q: What about the IC50 (GLI1 mRNA expression [1]; Mus musculus, ASZ001, Table 5, GLI1 mRNA, Ave ± SEM) of the same compound?
A: Its IC50 is 10 ± 3.2 µM.

Q: What about the GI50 (DAOY (MB)) of the same compound?
A: Its GI50 is 45.2 ± 7.7 µM.

Q: What about the Kd (GLI1-ZFD [2]; Table 5, Ave ± SEM) of the same compound?
A: The Kd was over 125 µM.

Q: And the IC50 (GLI1 mRNA expression [3]; Mus musculus, Table 5, GLI1 mRNA, Ave ± SEM)?
A: The IC50 was over 25 µM.

Q: And the GI50 (ASZ001 cells; Table 5, 48 h)?
A: The GI50 was 34.9 ± 6.1 µM.

Q: Which results are given for `Cc1ccc2ccc(C(Nc3ccccn3)c3ccccc3)c(O)c2n1` (centres unmarked) [Compound 34, 7-(Phenyl(pyridin-2-ylamino)methyl)-2-methylquinolin-8-ol]?
A: GI50 (PANC-1 (pancreatic)): 94.3 ± 19.5 µM; IC50 (GLI1 mRNA expression [1]; Mus musculus, ASZ001, Table 7, GLI1 mRNA, Ave ± SEM): 21.3 ± 5.2 µM; GI50 (DAOY (MB)): > 100 µM; binding to GLI1 (in words) (GLI1-ZFD [2]; MST binding assay): do not bind GLI1; Kd (GLI1-ZFD [2]; Table 7, Ave ± SEM): > 125 µM; IC50 (GLI1 mRNA expression [3]; Mus musculus, Table 7, GLI1 mRNA, Ave ± SEM): 7.2 ± 2 µM; GI50 (ASZ001 cells; Table 7, 48 h): > 100 µM
